Measurements: PubChem BioAssay (NCI)
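Results reflect a 48-hour exposure of cells in 96-well plates to compound at five concentrations. Here, GI50 denotes the concentration required for 50% inhibition of growth. TGI marks complete inhibition of growth.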

Assays:
Experiment in all cases: growth of human tumour cells (NCI), 48 h
[1] = tested on: ACHN renal
[2] = tested on: CAKI-1 renal
[3] = tested on: NCI-H522 lung
[4] = tested on: SF-295 CNS
[5] = tested on: HOP-92 NSCLC
[6] = tested on: OVCAR-3 ovarian
[7] = tested on: OVCAR-8 ovarian
[8] = tested on: K-562 leukemia
[9] = tested on: MCF7 breast
[10] = tested on: A498 renal

SMILES | TGI [1] [µM] | TGI [2] [µM] | TGI [3] [µM] | TGI [4] [µM] | TGI [5] [µM] | TGI [6] [µM] | TGI [7] [µM] | TGI [8] [µM] | TGI [9] [µM] | TGI [10] [µM] | GI50 [1] [µM] | GI50 [2] [µM] | GI50 [3] [µM] | GI50 [4] [µM] | GI50 [5] [µM] | GI50 [6] [µM] | GI50 [7] [µM] | GI50 [8] [µM] | GI50 [9] [µM] | GI50 [10] [µM]
Cc1cc2c(cc1C)C(=O)C1(C2)Cc2cc3c(cc2C1=O)CCC3 (stereo not given) | > 100 | > 100 | > 100 | > 100 | > 100 | > 100 | > 100 | > 100 | > 100 | > 100 |  |  |  |  |  |  |  |  |  | 
O=[N+]([O-])c1cc2ccc(N(CCO)CCO)nc2nc1N(CCO)CCO | > 100 | > 100 | > 100 | > 100 | > 100 | > 100 | > 100 | > 100 | > 100 | > 100 |  |  |  |  |  |  |  |  |  | 
Cc1cc(OCCOCCC(F)(F)P(=O)(O)O)ccc1CCc1cnc2c(N)nc3cc(CCC(=O)O)ccc3c2c1 | > 100 | > 100 | > 100 | > 100 | > 100 | > 100 | > 100 | > 100 | > 100 | > 100 | > 100 | 72.7 | > 100 | > 100 | 6.61 | > 100 | > 100 | > 100 | > 100 | 26.2
CCOC(=O)/C=C(\C(=O)OCC)n1cc(Cl)c(=O)n(CC(=O)OCC)c1=O | 3.02 | 5.27 | 1.85 | > 61.1 | 5.28 | 8.69 | 8.59 | 4.23 | 8.07 | 34.9 |  |  |  |  |  |  |  |  |  | 
N/C(=N\Nc1ccc(Cl)cc1)c1cnccn1 | > 100 | > 100 | > 100 | > 100 | > 100 | > 100 | > 100 | > 100 | > 100 | > 100 |  |  |  |  |  |  |  |  |  | 
COc1ccc(NC(C(N)=O)c2cc3cc(Br)ccc3nc2Cl)cc1 (stereo not given) | > 100 | > 100 | > 100 | > 100 | 99.7 | > 100 | > 100 | > 100 | > 100 | > 100 |  |  |  |  |  |  |  |  |  | 
CCN(CC)c1ccc(/C=C2\CCc3ccc([N+](=O)[O-])cc3C2=O)cc1 | > 100 | > 100 | > 100 | 7.55 | > 100 | 56.9 | > 100 | > 100 | > 100 | 69.9 |  |  |  |  |  |  |  |  |  | 
NCCCNOCCCN | > 100 | > 100 | > 100 | > 100 | > 100 | > 100 | > 100 | > 100 | > 100 | > 100 |  |  |  |  |  |  |  |  |  | 
Cc1c(C)c(C)c(-n2c(=O)n(C)c(=O)n2-c2cc(C(C)(C)C)cc(C(C)(C)C)c2O)c(C)c1C | 24.8 | 28.5 | 14.6 | 21.2 | 17.6 | 19.3 | 22.7 | 27.2 | 16.6 | 26.3 |  |  |  |  |  |  |  |  |  | 
CCCCc1ccc(Nc2nc(Cl)c3c(ncn3C3CC(Oc4ccc(C)cc4)C(COc4ccc(C)cc4)O3)n2)cc1 (stereo not given) | > 100 | > 100 | > 100 | > 100 | > 100 | > 100 | > 100 | > 100 | > 100 | > 100 |  |  |  |  |  |  |  |  |  | 
NC(=O)CC(N)C(=O)NC(Cc1ccccc1)C(=O)NC(Cc1ccccc1)NC(=O)C(Cc1c[nH]c2ccccc12)C(=O)O (stereo not given) | > 100 | > 100 | > 100 | > 100 | > 100 | > 100 | > 100 | > 100 | > 100 | > 100 |  |  |  |  |  |  |  |  |  | 
Nn1c(=O)[nH]c2ncn(Cc3ccccc3)c2c1=O | > 100 | > 100 | > 100 | > 100 | > 100 | > 100 | > 100 | > 100 | > 100 | > 100 |  |  |  |  |  |  |  |  |  | 
COc1c(Br)cc2ccccc2c1-c1c(OC)c(Br)cc2ccccc12 | > 100 | > 100 | > 100 | > 100 | > 100 | > 100 | > 100 | > 100 | > 100 | > 100 |  |  |  |  |  |  |  |  |  | 
O=c1c2cnccc2cc2c3ccccc3ccn12 | > 100 | > 100 | > 100 | > 100 | > 100 | > 100 | > 100 | > 100 | > 100 | > 100 |  |  |  |  |  |  |  |  |  | 
Cc1cc(Nc2ccc(NS(C)(=O)=O)cc2)c2c(ccc3nccc32)[nH]1 | 60.8 | 96.6 | 23.4 | 60.5 | 65.6 | 29.1 | > 100 | 34.6 | 36.2 | 43 |  |  |  |  |  |  |  |  |  | 
CC(C)(C)NC(=O)/C(=C\Sc1ccccc1)c1ccccc1 | > 100 | > 100 | > 52.1 | > 100 | > 42.4 | > 100 | > 100 | > 100 | > 100 | > 100 |  |  |  |  |  |  |  |  |  | 
CCCCSC1=N/C(=C\c2ccc(N(C)C)cc2)C(=O)N1 | > 100 | > 100 | 73.9 | > 100 | 96.2 | 73.1 | > 100 | > 100 | > 100 | 40.4 |  |  |  |  |  |  |  |  |  | 
